Results on 28 compounds are retold here after US10407409B2, “6-(5-hydroxy-1H-pyrazol-1-yl)nicotinamide inhibitors of PHD” (Takeda Pharmaceutical Company Limited, priority 2013, dated 2019).

For test [1], the target named is PHD2 enzyme (residues 181-417) (Homo sapiens (Human), UniProt Q9GZT9). The experiment in a line: Inhibition of PHD enzyme (LC/MS peptide hydroxylation assay). The following applies: PHD2 (residues 181-417) 5 nM, 60 min pre-incubation; -log(IC50), IC50 molar. It is filed as biochemical. The gist of the method:
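Hydroxylated peptide quantified by LC/MS after 60 min turnover of 1 uM biotinylated peptide with 2 uM 2-oxoglutarate and 1 mM ascorbate, stopped by excess tight-binding inhibitor. Beforehand, 5 nM enzyme and compound were preincubated 60 min at RT, pH 7.3 HEPES/KCl/TCEP/FeCl2/BSA buffer. Values as pIC50 (−log molar IC50).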

The subject of test [2] is HIF1a protein in H9c2 rat cardiomyocytes. The experiment in a line: Cell-based HIF-alpha stabilization assay (inhibition of PHD in cells). The following applies: Rattus norvegicus, H9c2, 24 h, 24 hrs compound incubation, HIF1a protein by ELISA, read-out: Inhibition of PHD in cells (pEC50) (converted). The method in brief:
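HIF1a stabilization was measured by ELISA on lysates of H9c2 rat cardiomyocytes after 24 h exposure to 11 serial compound concentrations, expressed relative to the desferrioxamine maximum. Curve fits gave EC50. EC50pos denotes the concentration producing half the desferrioxamine maximal response.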

Chain of PHD2 enzyme (residues 181-417) (Q9GZT9 181-417): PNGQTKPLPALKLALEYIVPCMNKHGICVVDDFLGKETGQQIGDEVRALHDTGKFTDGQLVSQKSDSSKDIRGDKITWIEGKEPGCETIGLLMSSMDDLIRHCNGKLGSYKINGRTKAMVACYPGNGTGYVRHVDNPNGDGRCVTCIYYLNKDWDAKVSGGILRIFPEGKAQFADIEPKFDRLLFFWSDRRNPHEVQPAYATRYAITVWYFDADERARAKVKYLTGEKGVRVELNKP

On to `Cc1c(-c2cnn(-c3ccc(C(=O)N4CCN(C5CC5)CC4)cn3)c2O)ccc(C#N)c1F` [Example 307, 4-(1-(5-(4-cyclopropylpiperazine-1-carbonyl)pyridin-2-yl)-5-hydroxy-1H-pyrazol-4-yl)-2-fluoro-3-methylbenzonitrile], for which, in test [1], the “PHD Inhibition (pIC50)” value amounted to 8.39. In addition, the EC50 in test [2] was 2340 nM.
With `COCCCNC(=O)c1ccc(-n2ncc(-c3ccc(CC#N)c(F)c3)c2O)nc1` [Example 219, 6-(4-(4-(cyanomethyl)-3-fluorophenyl)-5-hydroxy-1H-pyrazol-1-yl)-N-(3-methoxypropyl)nicotinamide], in test [1], the “PHD Inhibition (pIC50)” value is given as 8.2. Also, the EC50 in test [2] is 1230 nM.
With `CO[C@H]1CC[C@@H](NC(=O)c2ccc(-n3ncc(-c4ccc(C#N)cc4F)c3O)nc2)CC1` [Example 284, 6-(4-(4-cyano-2-fluorophenyl)-5-hydroxy-1H-pyrazol-1-yl)-N-((1 s,4s)-4-methoxycyclohexyl)nicotinamide], in test [1], the “PHD Inhibition (pIC50)” value is recorded as 8.21. Moreover, in test [2], the EC50 is 1290 nM.
The like results for `N#Cc1ccc(-c2cnn(-c3ccc(C(=O)NCCC4CCOC4)cn3)c2O)cc1` (centres unmarked) [Example 177, 6-(4-(4-cyanophenyl)-5-hydroxy-1H-pyrazol-1-yl)-N-(2-(tetrahydrofuran-3-yl)ethyl)nicotinamide] were, in that order, 7.64 and 309 nM.
The like results for `COCC1(NC(=O)c2ccc(-n3ncc(-c4ccc(C#N)cc4)c3O)nc2)CCCC1` [Example 149, 6-(4-(4-cyanophenyl)-5-hydroxy-1H-pyrazol-1-yl)-N-(1-(methoxymethyl)cyclopentyl)nicotinamide] were, in that order, 7.28 and 776 nM.
The like results for `COc1cc(-c2cnn(-c3ccc(C(=O)NCC4CN(C)CCO4)cn3)c2O)ccn1` (centres unmarked) [Example 46, 6-(5-hydroxy-4-(2-methoxypyridin-4-yl)-1H-pyrazol-1-yl)-N-((4-methylmorpholin-2-yl)methyl)nicotinamide] were, in that order, 7.8 and 1350 nM.
Consider `Cc1cc(C#N)ccc1-c1cnn(-c2ccc(C(=O)N3CCN(C4CC4)[C@@H](C)C3)cn2)c1O` [Example 389, (S)-4-(1-(5-(4-cyclopropyl-3-methylpiperazine-1-carbonyl)pyridin-2-yl)-5-hydroxy-1H-pyrazol-4-yl)-3-methylbenzonitrile], for which, in test [1], the “PHD Inhibition (pIC50)” value worked out at 8.20. In test [2], the EC50 is 1150 nM.
For the compound `COCC1(NC(=O)c2ccc(-n3ncc(-c4ccc(C#N)cc4)c3O)nc2)CCC1` [Example 199, 6-(4-(4-cyanophenyl)-5-hydroxy-1H-pyrazol-1-yl)-N-(1-(methoxymethyl)cyclobutyl)nicotinamide], the “PHD Inhibition (pIC50)” value in test [1] is given as 6.89. In test [2], the EC50 is 2340 nM.
As for `O=C(NCc1ccccc1)c1ccc(-n2ncc(-c3ccccn3)c2O)cc1` [Example 280, N-benzyl-4-(5-hydroxy-4-(pyridin-2-yl)-1H-pyrazol-1-yl)benzamide], the “PHD Inhibition (pIC50)” value in test [1] is given as 5.69. Also, in test [2], the EC50 was 50100 nM.
The like results for `CCN(C)[C@@H]1CCCN(C(=O)c2ccc(-n3ncc(-c4ccc(C#N)cc4C)c3O)nc2)C1` [Example 382, (R)-4-(1-(5-(3-(ethyl(methyl)amino)piperidine-1-carbonyl)pyridin-2-yl)-5-hydroxy-1H-pyrazol-4-yl)-3-methylbenzonitrile] were, in that order, 8.00 and 977 nM.
For `COCCCNC(=O)c1ccc(-n2ncc(-c3ccc(C#N)c(C)c3)c2O)nc1` [Example 402, 6-(4-(4-cyano-3-methylphenyl)-5-hydroxy-1H-pyrazol-1-yl)-N-(3-methoxypropyl)nicotinamide], the “PHD Inhibition (pIC50)” value in test [1] is on record as 7.99. Moreover, in test [2], the EC50 is 4370 nM.
The like results for `Cc1cc(C#N)ccc1-c1cnn(-c2ccc(C(=O)NCCCN(C)C)cn2)c1O` [Example 95, 6-(4-(4-cyano-2-methylphenyl)-5-hydroxy-1H-pyrazol-1-yl)-N-(3-(dimethylamino)propyl)nicotinamide] were, in that order, 7.9 and 83.2 nM.
With `N#Cc1ccc(-c2cnn(-c3ccc(C(=O)NCCC4CCCO4)cn3)c2O)cc1` (centres unmarked) [Example 241, 6-(4-(4-cyanophenyl)-5-hydroxy-1H-pyrazol-1-yl)-N-(2-(tetrahydrofuran-2-yl)ethyl)nicotinamide], the “PHD Inhibition (pIC50)” value in test [1] amounted to 7.51. In addition, the EC50 in test [2] is 437 nM.
On the same counts, the results for `CC(C)N1CCC(NC(=O)c2ccc(-n3ncc(-c4ccc(C#N)cc4)c3O)nc2)CC1` [Example 115, 6-(4-(4-cyanophenyl)-5-hydroxy-1H-pyrazol-1-yl)-N-(1-isopropylpiperidin-4-yl)nicotinamide] are 6.91 and 1820 nM.
Consider `N#Cc1ccc(-c2cnn(-c3ccc(C(=O)N[C@H]4CC[C@@H](O)CC4)cn3)c2O)cc1` [Example 164, 6-(4-(4-cyanophenyl)-5-hydroxy-1H-pyrazol-1-yl)-N-((1 s,4s)-4-hydroxycyclohexyl)nicotinamide], for which, in test [1], the “PHD Inhibition (pIC50)” value was 7.5. Moreover, the EC50 in test [2] is 525 nM.
For the compound `COCC[C@H](C)NC(=O)c1ccc(-n2ncc(-c3ccc(C#N)cc3)c2O)nc1` [Example 358, (S)-6-(4-(4-cyanophenyl)-5-hydroxy-1H-pyrazol-1-yl)-N-(4-methoxybutan-2-yl)nicotinamide], the “PHD Inhibition (pIC50)” value in test [1] is listed as 8.75. In addition, in test [2], the EC50 was 1150 nM.
On the same counts, the results for `N#Cc1ccc(-c2cnn(-c3ccc(C(=O)NCCCc4nccs4)cn3)c2O)cc1` [Example 116, 6-(4-(4-cyanophenyl)-5-hydroxy-1H-pyrazol-1-yl)-N-(3-(thiazol-2-yl)propyl)nicotinamide] are 7.42 and 741 nM.
Regarding `CN(C)CC1CCN(C(=O)c2ccc(-n3ncc(-c4ccc(C#N)cc4)c3O)nc2)C1` (centres unmarked) [Example 353, 4-(1-(5-(3-((dimethylamino)methyl)pyrrolidine-1-carbonyl)pyridin-2-yl)-5-hydroxy-1H-pyrazol-4-yl)benzonitrile], the “PHD Inhibition (pIC50)” value in test [1] is 7.25. The EC50 in test [2] is 3550 nM.
The like results for `COCCCN(C)C(=O)c1ccc(-n2ncc(-c3ccc(C#N)cc3)c2O)nc1` [Example 234, 6-(4-(4-cyanophenyl)-5-hydroxy-1H-pyrazol-1-yl)-N-(3-methoxypropyl)-N-methylnicotinamide] were, in that order, 7.12 and 2240 nM.
On the same counts, the results for `CO[C@H]1CC[C@@H](NC(=O)c2ccc(-n3ncc(-c4ccc(C#N)cc4C)c3O)nc2)CC1` [Example 119, 6-(4-(4-cyano-2-methylphenyl)-5-hydroxy-1H-pyrazol-1-yl)-N-((1 s,4s)-4-methoxycyclohexyl)nicotinamide] are 7.11 and 126 nM.
On the same counts, the results for `CCN1CCCC1CN(C)C(=O)c1ccc(-n2ncc(-c3ccc(C#N)cc3)c2O)nc1` (centres unmarked) [Example 363, 6-(4-(4-cyanophenyl)-5-hydroxy-1H-pyrazol-1-yl)-N-((1-ethylpyrrolidin-2-yl)methyl)-N-methylnicotinamide] are 7.28 and 2090 nM.
For the compound `Cc1cc(C#N)ccc1-c1cnn(-c2ccc(C(=O)N3CCC(N4CCOCC4)CC3)cn2)c1O` [Example 421, 4-(5-hydroxy-1-(5-(4-morpholinopiperidine-1-carbonyl)pyridin-2-yl)-1H-pyrazol-4-yl)-3-methylbenzonitrile], the “PHD Inhibition (pIC50)” value in test [1] worked out at 8.31. Further, the EC50 in test [2] was 661 nM.
Turning to `CCN1CCN(C(=O)c2ccc(-n3ncc(-c4ccc(C#N)c(F)c4C)c3O)nc2)[C@@H](C)C1` [Example 341, (S)-4-(1-(5-(4-ethyl-2-methylpiperazine-1-carbonyl)pyridin-2-yl)-5-hydroxy-1H-pyrazol-4-yl)-2-fluoro-3-methylbenzonitrile], the “PHD Inhibition (pIC50)” value in test [1] is 8.47. In addition, the EC50 in test [2] is 589 nM.
Take `COc1cc(-c2cnn(-c3ccc(C(=O)NCCCN4CCOCC4)cn3)c2O)ccn1` [Example 32, 6-(5-hydroxy-4-(2-methoxypyridin-4-yl)-1H-pyrazol-1-yl)-N-(3-morpholinopropyl)nicotinamide]: the “PHD Inhibition (pIC50)” value in test [1] is 7.8. The EC50 in test [2] is 813 nM.
Turning to `N#Cc1ccc(-c2cnn(-c3ccc(C(=O)NC4CCN(CCO)CC4)cn3)c2O)cc1` [Example 85, 6-(4-(4-cyanophenyl)-5-hydroxy-1H-pyrazol-1-yl)-N-(1-(2-hydroxyethyl)piperidin-4-yl)nicotinamide], the “PHD Inhibition (pIC50)” value in test [1] was 6.94. In test [2], the EC50 is 2240 nM.
On to `COCCCNC(=O)c1ccc(-n2ncc(-c3ccc(C#N)c(C)c3C)c2O)nc1` [Example 409, 6-(4-(4-cyano-2,3-dimethylphenyl)-5-hydroxy-1H-pyrazol-1-yl)-N-(3-methoxypropyl)nicotinamide], for which, in test [1], the “PHD Inhibition (pIC50)” value amounted to 8.24. In addition, the EC50 in test [2] is 257 nM.
With `COc1cc(-c2cnn(-c3ccc(C(=O)NCC4CCOCC4)cn3)c2O)ccc1C#N` [Example 253, 6-(4-(4-cyano-3-methoxyphenyl)-5-hydroxy-1H-pyrazol-1-yl)-N-((tetrahydro-2H-pyran-4-yl)methyl)nicotinamide], the “PHD Inhibition (pIC50)” value in test [1] is on record as 8.3. Moreover, the EC50 in test [2] was 5620 nM.
The like results for `COC[C@@H](NC(=O)c1ccc(-n2ncc(-c3ccc(C#N)cc3C)c2O)nc1)C(C)C` [Example 62, (S)-6-(4-(4-cyano-2-methylphenyl)-5-hydroxy-1H-pyrazol-1-yl)-N-(1-methoxy-3-methylbutan-2-yl)nicotinamide] were, in that order, 7.14 and 182 nM.
